Data set [1] has as its system HCC-366 cells (DDR2 L239R). The settings on record: previous report; cited from earlier work.
For the next data set, the system named is NCI-H1703 xenografts. As to the kind of experiment: Xenograft tumor size in nude mice. The following applies: 50 mg/kg oral gavage, two weeks.
Data set [2] deals with Ba/F3 cells expressing DDR2 mutants. Nature of the data set: Four-day proliferation of IL-3-independent Ba/F3 cells. Type of data set: cell-based. The settings on record: for Killing / proliferation of Ba/F3 cells expressing DDR2 mutants: single agent. How it is done: (§1) Cell Culture. A549, NCI-H2286, HCC-366 and NCI-H1703 cells were obtained from the core collection at the Dana Farber Cancer Institute, having previously been purchased from the ATCC and used to establish a collection of early passage lung cancer cell lines which were analyzed by fingerprinting and SNP arrays (32). All cells used for the experiments described in this manuscript were obtained from freezes made at that time. Lung cancer cell lines were grown in RPMI (Invitrogen) with 10% fetal calf serum, NIH-3T3 cells were grown in DMEM (Mediatech) with 10% serum and Ba/F3 cells in RPMI supplemented with 10% serum and IL-3 (BD Biosciences) at 10 ng/ml. For IL-3 withdrawal experiments Ba/F3 cells were collected via centrifugation, washed once in sterile PBS and then resuspended in media without IL-3. Colony formation assays in NIH-3T3 cells were performed in six-well plates in which 25,000 NIH-3T3 cells were plated in triplicate in 1 ml of 0.33% top agar on top of 2 ml of 0.5% bottom agar. After three weeks colonies were counted using the NIH ImageJ software.
(§2) Cell Proliferation and Viability Assays. […] Proliferation was measured four days later.

Data set [3] has as its system NIH-3T3 cells expressing L63V DDR2. As to the kind of experiment: Soft agar colony formation. In kind it is cell-based. The following applies: L63V DDR2, single application at plating. How it is done:
as §1

For a further data set, the system named is NCI-H2286 xenografts. Nature of the data set: Xenograft tumor size in nude mice. The following applies: 50 mg/kg oral gavage, two weeks.
The test system of data set [4] is NCI-H1703 SCC cell line (PDGFRA amplification). The settings on record: NCI-H1703, positive control line.
Description: Cell Proliferation and Viability Assays. Cell proliferation was measured with the Cell-Titer-Glo reagent (Promega) per the manufacturer's instructions. For experiments with the SCC cell lines cells were plated in clear-bottomed 96 well plates at a density of 1500 cells per well. The following day the drug was added and cell proliferation was measured six days later for the SCC cell lines. For Ba/F3 cells were plated at 5000 cells per well and the drug added the same day. Proliferation was measured four days later. Proliferation measurements were made using a standard 96 well plate luminometer/plate reader. Data are shown as relative values in which the luminescence at a given drug concentration is compared to untreated cells of the same cell type.
Statistics: For proliferation and colony formation assays mean values from a minimum of triplicate samples are reported as well as standard errors as calculated by Microsoft Excel. IC50 values were obtained using Graph Pad Prism software.
For data set [5], the system named is DDR2 mutant cell lines. As to the kind of experiment: Annexin V analysis 48 hours after addition of drug. Type of data set: cell-based. The settings on record: 48 hours after drug.
For data set [6] the following is noted: human, in vivo; cited from earlier work.
Data set [7] has as its system DDR2 mutant cell lines. As to the kind of experiment: Cell viability by trypan blue exclusion. In kind it is cell-based. As for the experimental part: as §2
Data set [8] relates to HCC-366 cells (DDR2 L239R). An excerpt: (§3) Cell Proliferation and Viability Assays. […] Kinase inhibitors were purchased from LC Labs or were synthesized by Nathanael Gray's laboratory at Harvard Medical School.
Data set [9] concerns NCI-H2286 cells (DDR2 I638F).
Description: as §3

The test system of data set [10] is Src and STAT5 phosphorylation in DDR2 L63V-expressing Ba/F3 cells. As to the kind of experiment: Immunoblots of phospho-Src and phospho-STAT5. Type of data set: cell-based. The settings on record: single agent or with nilotinib, AP24534 or dasatinib; two days. How it is done:
Immunoblots: Immunoblots were performed using the Nupage system (Invitrogen) per the manufacturer's protocol. Cells were lysed in 1% NP-40 with protease (Roche) and phosphatase inhibitors (Calbiochem) and protein concentration assayed with the Bradford reagent (Bio-Rad). Primary antibodies used were Flag-M2 (Sigma), phospho-Y417-Src (Cell Signaling Technologies), phospho-Y694-STAT5 (Cell Signaling) and Actin (Santa Cruz). A DDR2 antibody was generated for this project by Bethyl Labs. Secondary HRP-conjugated antibodies were all obtained from Pierce and proteins detected by pico-ECL (Thermo Scientific). Images were imported into Adobe Illustrator using an Epson 4490 scanner. […] In all cases adjustment of brightness or contrast the adjustment was applied uniformly to the image as a whole.
(In general: Immunoblotting shows a protein as a band on a membrane.)

For data set [11], the system named is SCC lines harboring DDR2 mutations (NCI-H2286, HCC-366). Nature of the data set: Cell proliferation of DDR2-mutant SCC lines (Cell-Titer-Glo). Type of data set: cell-based.

“Also recorded” adds a separate entry of the source.

Turning to “N-(2 ? chloro-6-methylphenyl)-2-[[6-[4-(2-hydroxyethyl)-1-piperazinyl]-2-methyl-4 ? pyrimidinyl]amino]-5-thiazolecarboxamide, monohydrate [Dasatinib]”, the “Sensitivity rank among 83 NSCLC cell lines” value in data set [1] is listed as “most sensitive squamous cell lung cancer line”. In addition, the Tumor size result with NCI-H1703 xenografts and in the data set with NCI-H2286 xenografts was “decrease in tumor size” in each case. The IC50 in data set [2] (mean over Ba/F3 lines expressing DDR2 mutants, without IL-3, four days, read-out: Mean calculated IC50) is 680 nM; in data set [8] (read-out: IC50, inhibition of proliferation, HCC-366, six days) it was 140 nM; in [9] (read-out: IC50, inhibition of proliferation, NCI-H2286, six days) it was 139 nM. Also, the “Colony formation in soft agar” value in data set [3] is “inhibited”. In addition, the Sensitivity of proliferation entry in [4] was “sensitive”. Further, the “Cellular annexin V staining” value in the data set with DDR2 mutant cell lines [5] is reported as “increase in cellular annexin V staining”. Further, in data set [6], the Toxicity in patients entry was “myelosuppression and the development of pleural and pericardial effusions”. Also, in the data set with DDR2 mutant cell lines [7], the “Cell death vs cell cycle arrest by trypan blue exclusion” value is given as “cell death as opposed to cell cycle arrest”. Further, the “Increase of IC50 with ectopic DDR2 T654M gatekeeper mutation” value in data set [8] (HCC-366 expressing T654M in cis with L239R) was determined as 209 fold; in data set [9] (NCI-H2286 expressing T654M in cis with I638F), 35 fold.

As for `CN1CCN(CCOc2cc(OC3CCOCC3)c3c(Nc4c(Cl)ccc5c4OCO5)ncnc3c2)CC1` [AZD0530], the “Proliferation on addition of AZD0530” value in [2] (Ba/F3 DDR2 L63V grown in 50 nM nilotinib) was “marked reduction in proliferation”. The “Killing / proliferation of Ba/F3 cells expressing DDR2 mutants” value in data set [2] (without IL-3, four days) is recorded as “modest effect on the proliferation; also recorded: minimal toxicity”. Further, the “Src and STAT5 phosphorylation” value in [10] is “reduced Src and STAT5 phosphorylation in a dose-dependent fashion”.

For the compound `Cc1cn(-c2cc(NC(=O)c3ccc(C)c(Nc4nccc(-c5cccnc5)n4)c3)cc(C(F)(F)F)c2)cn1` [Nilotinib], in data set [2] (50 nM, wild-type Ba/F3 or Ba/F3 expressing DDR2 mutations), the “Effect on proliferation at 50 nM” value is “little effect on proliferation”. Moreover, the “Killing / proliferation of Ba/F3 cells expressing DDR2 mutants” value in data set [2] (without IL-3, four days) is “modest activity; also recorded: minimal toxicity”. The “Proliferation of SCC lines harboring DDR2 mutations” value in [11] is given as “inhibited the proliferation”.

Values taken from patent US10385403B2, “DDR2 mutations in squamous cell lung cancer” (The Broad Institute, Inc., priority 2012, dated 2019).
